Reference: patent US7648989B2, “Indolylmaleimide derivatives as PKC inhibitors” (Novartis AG, priority 2004, dated 2010)

Legend:
Human recombinant PKCβ1 = molecular target: T1, Human recombinant PKCβ1 (Homo sapiens, UniProt P05771); assay: Protein Kinase Cβ1 assay; format: biochemical; settings: selectivity ratio relative to PKCα
T1 construct: purchased Oxford Biomedical Research
Protocol: (§1) The compounds of the invention are tested for their activity on different PKC isoforms according to the following method. Assay is performed in a white with clear bottom 384-well microtiterplate with non-binding surface. The reaction mixture (25 μl) contains 1.5 μM of a tridecapeptide acceptor substrate that mimics the pseudo substrate sequence of PKC α with the Ala→Ser replacement, 10 μM ^33P-ATP, 10 mM Mg(NO3)2, 0.2 mM CaCl2, PKC at a protein concentration varying from 25 to 400 ng/ml (depending on the isotype used), lipid vesicles (containing 30 mol % phosphatidylserine, 5 mol % DAG and 65 mol % phosphatidylcholine) at a final lipid concentration of 0.5 mM, in 20 mM Tris-HCl buffer pH 7.4+0.1% BSA. Incubation is performed for 60 min at room temperature.
Human recombinant PKCβ1 is obtained from Oxford Biomedical Research and is used under the assay conditions as described under Section A.1 above.

Human recombinant PKCδ = molecular target: T2, Human recombinant PKCδ (Homo sapiens, UniProt Q05655); assay: Protein Kinase Cδ assay; format: biochemical; settings: selectivity ratio relative to PKCα
T2 construct: purchased Oxford Biomedical Research
Protocol: as §1
Human recombinant PKCδ is obtained from Oxford Biomedical Research and is used under the assay conditions as described under Section A.1 above.

Human recombinant PKCε = molecular target: T3, Human recombinant PKCε (Homo sapiens, UniProt Q02156); assay: Protein Kinase Cε assay; format: biochemical; settings: selectivity ratio relative to PKCα
T3 construct: purchased Oxford Biomedical Research
T3 sequence (Q02156 1-737): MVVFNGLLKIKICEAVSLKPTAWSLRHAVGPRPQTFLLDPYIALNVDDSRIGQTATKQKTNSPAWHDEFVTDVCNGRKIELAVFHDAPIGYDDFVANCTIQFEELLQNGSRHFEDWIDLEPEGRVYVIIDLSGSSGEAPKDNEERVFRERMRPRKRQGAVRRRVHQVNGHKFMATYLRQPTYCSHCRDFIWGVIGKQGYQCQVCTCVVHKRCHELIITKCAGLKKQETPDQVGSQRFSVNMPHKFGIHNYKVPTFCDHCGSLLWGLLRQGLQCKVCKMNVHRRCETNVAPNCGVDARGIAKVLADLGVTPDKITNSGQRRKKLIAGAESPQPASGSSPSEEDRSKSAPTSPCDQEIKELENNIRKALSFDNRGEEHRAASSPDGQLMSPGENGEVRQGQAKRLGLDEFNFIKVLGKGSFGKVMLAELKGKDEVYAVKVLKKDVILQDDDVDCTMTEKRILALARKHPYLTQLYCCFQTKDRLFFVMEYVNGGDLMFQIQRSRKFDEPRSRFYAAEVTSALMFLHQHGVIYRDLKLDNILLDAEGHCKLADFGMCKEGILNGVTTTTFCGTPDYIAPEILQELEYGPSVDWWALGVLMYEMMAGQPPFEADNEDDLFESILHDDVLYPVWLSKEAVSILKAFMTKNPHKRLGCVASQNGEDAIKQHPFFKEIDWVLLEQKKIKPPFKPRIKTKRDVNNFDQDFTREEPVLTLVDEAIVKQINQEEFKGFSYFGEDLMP
Protocol: as §1
Human recombinant PKCε is obtained from Oxford Biomedical Research and is used under the assay conditions as described under Section A.1 above.

Human recombinant PKCη = molecular target: T4, Human recombinant PKCη (Homo sapiens, UniProt P24723); assay: Protein Kinase Cη assay; format: biochemical; settings: selectivity ratio relative to PKCα
T4 construct: purchased PanVera
Protocol: as §1
Human recombinant PKCη is obtained from PanVera and is used under the assay conditions as described under Section A.1 above.

Human recombinant PKCθ = Human recombinant PKCθ (Homo sapiens, UniProt Q04759); assay: Protein Kinase Cθ assay; format: biochemical; settings: selectivity ratio relative to PKCα
Protocol: as §1
Human recombinant PKCθ is used under the assay conditions as described above.

[1] = system: spleen cells from CBA and BALB/c mice (MLR); bone marrow cells from CBA mice (BM); assay: Allogeneic Mixed Lymphocyte Reaction (MLR) assay compared with Bone Marrow Proliferative (BM) assay; format: cell-based; settings: mouse MLR and mouse bone marrow proliferation, 3H-thymidine incorporation
Protocol: Bone marrow cells from CBA mice (2.5×10^4 cells per well in flat bottom tissue culture microtiter plates) are incubated in 100 μl RPMI medium containing 10% FCS, 100 U/ml penicillin, 100 μg/ml streptomycin (Gibco BRL, Basel, Switzerland), 50 μM 2-mercaptoethanol (Fluka, Buchs, Switzerland), WEHI-3 conditioned medium (7.5% v/v) and L929 conditioned medium (3% v/v) as a source of growth factors and serially diluted compounds. Seven three-fold dilution steps in duplicates per test compound are performed. After four days of incubation 1 μCi ^3H-thymidine is added. Cells are harvested after an additional five-hour incubation period, and incorporated ^3H-thymidine is determined according to standard procedures. Conditioned media are prepared as follows. WEHI-3 cells (ATCC TIB68) and L929 cells (ATCC CCL 1) are grown in RPMI medium until confluence for 4 days and one week, respectively. […]
Briefly, spleen cells from CBA and BALB/c mice (1.6×10^5 cells from each strain per well in flat bottom tissue culture microtiter plates, 3.2×10^5 in total) are incubated in RPMI medium containing 10% FCS, 100 U/ml penicillin, 100 μg/ml streptomycin (Gibco BRL, Basel, Switzerland), 50 μM 2-mercaptoethanol (Fluka, Buchs, Switzerland) and serially diluted compounds. […] Cells are harvested after an additional five-hour incubation period, and incorporated ^3H-thymidine is determined according to standard procedures. […]

T4 sequence (P24723 whole entry): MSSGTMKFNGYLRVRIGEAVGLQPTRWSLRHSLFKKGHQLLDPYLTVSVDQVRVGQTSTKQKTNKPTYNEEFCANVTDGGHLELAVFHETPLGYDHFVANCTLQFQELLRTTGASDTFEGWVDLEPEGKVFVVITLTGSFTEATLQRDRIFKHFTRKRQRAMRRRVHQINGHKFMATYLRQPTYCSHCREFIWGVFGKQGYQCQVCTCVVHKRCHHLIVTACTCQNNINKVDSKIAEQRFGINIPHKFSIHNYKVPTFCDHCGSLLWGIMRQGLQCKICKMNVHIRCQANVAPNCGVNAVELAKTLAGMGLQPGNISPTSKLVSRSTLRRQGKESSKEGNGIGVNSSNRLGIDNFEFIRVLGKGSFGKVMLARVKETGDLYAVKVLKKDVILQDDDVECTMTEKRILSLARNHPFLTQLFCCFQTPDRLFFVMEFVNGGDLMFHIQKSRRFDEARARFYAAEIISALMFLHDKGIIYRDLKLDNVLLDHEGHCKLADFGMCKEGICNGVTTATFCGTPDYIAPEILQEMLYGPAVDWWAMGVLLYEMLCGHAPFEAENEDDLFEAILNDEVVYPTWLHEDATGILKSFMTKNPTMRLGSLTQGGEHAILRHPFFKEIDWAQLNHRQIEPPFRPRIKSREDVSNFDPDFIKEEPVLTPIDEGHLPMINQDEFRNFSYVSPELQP
T2 sequence (Q05655 whole entry): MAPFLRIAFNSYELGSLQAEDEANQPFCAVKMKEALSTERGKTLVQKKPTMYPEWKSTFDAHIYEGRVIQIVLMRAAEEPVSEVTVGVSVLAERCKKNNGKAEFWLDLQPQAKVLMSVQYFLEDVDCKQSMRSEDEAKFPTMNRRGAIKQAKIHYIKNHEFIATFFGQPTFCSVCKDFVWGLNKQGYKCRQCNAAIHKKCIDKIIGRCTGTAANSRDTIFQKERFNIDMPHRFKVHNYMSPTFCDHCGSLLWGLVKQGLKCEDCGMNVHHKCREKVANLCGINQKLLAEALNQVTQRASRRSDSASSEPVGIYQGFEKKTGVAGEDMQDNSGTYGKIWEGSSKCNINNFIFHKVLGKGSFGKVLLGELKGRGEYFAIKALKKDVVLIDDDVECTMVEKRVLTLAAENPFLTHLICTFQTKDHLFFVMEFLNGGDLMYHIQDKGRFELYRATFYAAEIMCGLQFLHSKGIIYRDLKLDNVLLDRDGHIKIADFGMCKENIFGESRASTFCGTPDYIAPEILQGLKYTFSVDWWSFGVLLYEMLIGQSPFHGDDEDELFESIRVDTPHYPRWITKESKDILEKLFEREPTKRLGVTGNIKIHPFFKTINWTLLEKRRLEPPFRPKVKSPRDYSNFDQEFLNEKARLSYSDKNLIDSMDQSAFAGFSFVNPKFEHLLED
Sequence of Human recombinant PKCθ (Q04759 whole entry): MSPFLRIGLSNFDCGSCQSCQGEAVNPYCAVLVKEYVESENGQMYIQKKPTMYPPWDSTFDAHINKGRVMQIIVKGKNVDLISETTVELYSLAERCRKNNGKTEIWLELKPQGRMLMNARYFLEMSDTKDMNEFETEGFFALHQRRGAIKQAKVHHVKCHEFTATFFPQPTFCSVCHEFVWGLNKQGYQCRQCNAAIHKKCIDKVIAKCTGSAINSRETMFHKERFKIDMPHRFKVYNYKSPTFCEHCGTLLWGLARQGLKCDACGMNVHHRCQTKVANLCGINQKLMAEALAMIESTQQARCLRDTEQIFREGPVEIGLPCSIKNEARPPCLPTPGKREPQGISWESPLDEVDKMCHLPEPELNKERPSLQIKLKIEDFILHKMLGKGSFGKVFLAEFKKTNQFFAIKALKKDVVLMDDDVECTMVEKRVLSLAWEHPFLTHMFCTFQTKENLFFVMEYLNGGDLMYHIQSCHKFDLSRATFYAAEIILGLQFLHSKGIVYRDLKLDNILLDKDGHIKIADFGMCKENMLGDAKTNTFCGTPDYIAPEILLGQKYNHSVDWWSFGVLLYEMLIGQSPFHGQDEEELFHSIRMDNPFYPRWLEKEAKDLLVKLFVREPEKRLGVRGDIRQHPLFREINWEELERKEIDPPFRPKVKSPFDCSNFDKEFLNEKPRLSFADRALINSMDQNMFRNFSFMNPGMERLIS
T1 sequence (P05771 whole entry): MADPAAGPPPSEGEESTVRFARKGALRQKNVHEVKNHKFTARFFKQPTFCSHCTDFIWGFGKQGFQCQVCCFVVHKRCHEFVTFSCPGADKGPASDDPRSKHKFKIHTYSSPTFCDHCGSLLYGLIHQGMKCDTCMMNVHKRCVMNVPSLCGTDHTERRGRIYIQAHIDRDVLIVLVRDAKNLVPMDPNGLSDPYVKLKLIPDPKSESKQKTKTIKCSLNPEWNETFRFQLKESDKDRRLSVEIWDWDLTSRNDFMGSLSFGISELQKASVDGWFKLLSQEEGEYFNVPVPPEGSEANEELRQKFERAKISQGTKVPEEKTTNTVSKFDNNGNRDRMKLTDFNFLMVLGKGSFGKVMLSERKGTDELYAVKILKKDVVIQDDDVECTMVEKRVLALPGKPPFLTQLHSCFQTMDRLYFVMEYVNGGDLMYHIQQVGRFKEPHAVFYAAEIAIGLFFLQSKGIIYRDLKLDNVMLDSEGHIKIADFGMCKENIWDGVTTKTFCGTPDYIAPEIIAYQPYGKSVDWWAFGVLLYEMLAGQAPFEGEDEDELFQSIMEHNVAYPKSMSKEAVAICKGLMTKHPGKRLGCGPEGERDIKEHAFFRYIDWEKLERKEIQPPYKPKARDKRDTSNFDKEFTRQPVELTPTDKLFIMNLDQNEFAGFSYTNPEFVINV

SMILES | β/α: ratio of the IC50 value for PKC β to the IC50 value for PKCα (Human recombinant PKCβ1) | δ/α: ratio of the IC50 value for PKC δ to the IC50 value for PKCα (Human recombinant PKCδ) | ε/α: ratio of the IC50 value for PKC ε to the IC50 value for PKCα (Human recombinant PKCε) | η/α: ratio of the IC50 value for PKC η to the IC50 value for PKCα (Human recombinant PKCη) | θ/α: ratio of the IC50 value for PKC θ to the IC50 value for PKCα (Human recombinant PKCθ) | MLR/BM: ratio of the IC50 value as determined by the MLR assay to the IC50 value as determined by the BM assay [1]
CN(C)Cc1ccc2ccc(Cl)c(C3=C(c4cn(C)c5ccccc45)C(=O)NC3=O)c2c1 [Example 1, 3-(2-Chloro-7-dimethylaminomethyl-naphthalen-1-yl)-4-(1-methyl-1H-indol-3-yl)-pyrrole-2,5-dione] | 1.2 | 66.4 | 122.6 | 140.2 | 90.8 | 21.6
Cn1c2ccccc2c2c3c(c4c5ccccc5n(CCC#N)c4c21)CNC3=O [Example 47, Gö 6976] | 5.3 | 120.5 | 45.8 | 118.7 | 222.3 | 2.1
